Assays:
[1] = system: osteoblast differentiation; test: osteoblast differentiation; type: cell-based, mouse
Method: For osteoblast differentiation analyses in vitro, we isolated bone marrow mesenchymal stem cells (MSCs) from femurs and tibias of 8-week-old WT and Kiss1^−/−, Gpr54^−/− and Dusp18^−/− mice using a 1 ml syringe with a 26 G needle. MSCs were seeded into 12-well plates at a concentration of 1 × 10^5 cells per well. Cells were incubated with 50 µg/mL ascorbic acid, 10 mmol/L beta-glycerophosphate and 10 nmol/L dexamethasone. The medium was replaced every 2 days during the incubation period. Alkaline phosphatase (ALP) activity was assayed using the assay mixtures containing 0.1 M 2-amino-2-methyl-1-propanol, 1 mM MgCl2, 8 mM p-nitrophenylphosphate disodium (Sigma). For determination of mineralization, cells were fixed with 95% ethanol and stained with AgNO3 by the von Kossa method.

OVX mice = test: OVX-induced bone loss model (and sham-operated mice); type: in vivo, mouse; details: in vivo, OVX-induced bone loss model
Text: Fig. 7 Kp-10 ameliorated OVX-induced bone loss. a, c Representative micro-CT images of femoral trabecular bone (a) and cortical bone (c). Female C57 mice treated with vehicle (Sham) or 50 nmol/kg (DSS)*6-Kp-10, ovariectomized mice (OVX) treated with vehicle or 50nmol/kg (DSS)*6-Kp-10 twice one week by intraperitoneal injection (n = 6 per group). Scale bar, 500 µm. b, d Parameter analysis of femurs from the mice above. BMD bone mineral density, BV/TV bone volume as a fraction of total bone volume, Tb.Th trabecular thickness, Tb.N trabecular number, Tb.Sp trabecular separation. e Representative TRAP staining images of femurs from Fig. 7a. f Histomorphometry analysis of the femurs from Fig. 7a. Oc.S/BS osteoclast surface per bone surface, N.Oc/B.Pm osteoclast bone surface density, ES/BS eroded surface per bone surface. Data represent means ± SEM. P values were determined by one-way ANOVA analysis (b, d, f). Representative results were obtained from at least three independent experiments. Source data are provided as a Source Data file.
3D micro-CT analyses were performed as previously described. We scanned the femur using in vitro X-ray microtomography (Skyscan 1272, Bruker micro CT) at a pixel size of 9 µm, and analyzed the results according to the manufacturer’s instructions. Region-of-interest (ROI) was defined from 10 to 110 image slices, where the growth plate slice was defined as 0 mm. The contrast was defined from 68–255; 3D analysis, BMD, and 3D models were analyzed using CTAn software (Bruker micro CT). 3D models were adjusted in CT Vox software (Bruker micro CT).
Bone tissue was removed of excess tissues and fixed with 4% formalin, decalcified with 0.5 M EDTA for 10–14 days, embedded with paraffin, sectioned, and stained using the TRAP staining kit (Sigma-Aldrich, 387A-1KT). The third lumbar spine vertebrae (L3) were fixed with 4% formalin, sectioned, and subjected to Von Kossa staining as described previously[60],[61]. For double calcian labeling assay, 4−5 week-old mice were administrated calcian (30 μg/mL) through intraperitoneal injection for the first time and the second time after 10 days. The third lumbar spine vertebrae (L3) were fixed with 4% formalin, sectioned, and subjected to Goldner’s Masson trichrome staining, or acquisition of fluorescence images. Histomorphometric measurements were made using the OsteoMeasure Analysis System (Osteometrics, Atlanta, GA, USA) according to standard criteria.
For animal studies in vivo, mice were randomized for weight. For the OVX-induced bone loss model, 2-month-old female C57BL/6 mice were sham-operated (sham) or ovariectomized (OVX) and randomly divided into indicated groups. Vehicle, Kp-10 or (DSS)*6-Kp-10 was injected into the tail vein twice per week. After two months of treatment, the femurs and the L3 lumbrae were isolated for micro-CT or histomorphometric analysis. 3D micro-CT analyses were performed according to a standard protocol. BMD and bone volume were analyzed by CT-analysis software (CTAn, Bruker micro CT, Kontich, Belgium) and images were reconstituted by CT-volume software (CTvol, skyscan, CTAn, Bruker micro CT, Kontich, Belgium).
Supplementary Fig. 16 a Representative image of Von Kossa staining of sham-operated female C57 mice treated with vehicle (Sham, n=4), ovariectomized mice (OVX, n=3), and OVX mice treatment with 1 nmol/kg Kp-10 (n=6),10 nmol/kg Kp-10 (n=6),1 nmol/kg (DSS)*6-Kp-10 (n=5) or 10 nmol/kg (DSS)*6-Kp-10 (n=6) twice one week by intraperitoneal injection for two months. […]

[2] = system: DUSP18 / GPR54 interaction; test: Co-IP: interaction of DUSP18 with GPR54 in transfected 293T cells; type: cell-based, human; details: 293T cells transfected with DUSP18-HA and GPR54-Flag, Kp-10 (10 nM) 20 min
Method: Data represent means ± SEM. P values were determined by one-way ANOVA analysis (b, c, e, g, i, k). Representative results were obtained from at least three independent experiments. Source data are provided as a Source Data file.
Whole-cell proteins were extracted using 1x RIPA buffer (25 mM Tris, pH7.5, 150 mM NaCl, 0.5% Sodium deoxycholate, 1% Triton-X-100) supplemented with protease inhibitors (Complete Mini, Roche) and phosphatase inhibitors (phosphatase inhibitor cocktail set I and II, Calbiochem). Immunoprecipitation and immunoblotting with indicated antibodies were performed as described in Supplementary Table 1. Image Jsoftware (V1.52) was used for quantification analysis. Uncropped and unprocessed blots are presented in the Supplementary Information file.
Supplementary Fig. 6 a, b IB and quantification of protein levels analysis. […] Error bars are ± SEM. P-values were determined by two-tailed Student’s t-test (b, e) or by one-way ANOVA analysis (h, j). *P <0.05, **P <0.01, ***P <0.001, ****P <0.0001. Representative results were observed from at least three independent experiments. Source data are provided as a Source Data file.

[3] = system: phosphatases co-immunoprecipitated with Gpr54; test: mass spectrometry of anti-Gpr54 IP; type: cell-based, mouse; details: RAW264.7 cells, Kp-10 20 min
Method: For mass spectrometry (MS) analysis, anti-Gpr54 IP was performed with the whole-cell lysates derived from two 10-cm dishes of RAW264.7 cells with or without Kp-10 treatment for 20 min. The protein complexes after Co-IP were extensively washed with PBS, followed by on-bead digestion. Mass spectra were acquired on a Q-Exactive mass spectrometer (Thermo Scientific, Bremen, Germany). The raw mass spectrometry data were searched against the mouse IPI databases (version 3.86, released on June 28, 2012) using the Proteome Discoverer software suite (Thermo Scientific, San Jose, USA) utilizing a label-free quantification feature. The mass spectrometry proteomics data have been deposited to the ProteomeXchange Consortium via the PRIDE[52] partner repository with the dataset identifier PXD038433.

[4] = system: osteoblast differentiation; details: in vitro, KP-10 5 and 50 μM; ref 46 (Son et al.); cited from earlier work
Text: Typically, GPCR activation with increasing of ligand concentration generates different signalings and phenotypes. […] Furthermore, we foun ...

Substance: Kisspeptin-10 [Kp-10]
- osteoblast differentiation, low dose ([1]; Kp-10 0.01 nM and 0.1 nM): effectively suppressed osteoblast differentiation
- osteoblast differentiation ([1]; upon Kp-10 stimulation, ALP and von Kossa staining): dose-dependently suppressed
- bone loss / bone protection in vivo (summary statement) (OVX mice): abrogated bone loss by suppressing osteoclast activity in vivo
- interaction of DUSP18 with GPR54 [2]: dose-dependently induced the interaction
- phosphatases increasing after Kp-10 stimulation [3]: three increasing phosphatases including DUSP18, PTPN6 and PPP1CA were identified
- osteoblast differentiation at 5 and 50 μM [4]: stimulated osteoblast differentiation in vitro

From paper PMC10861593, “Kisspeptin-10 binding to Gpr54 in osteoclasts prevents bone loss by activating Dusp18-mediated dephosphorylation of Src” (Nature Communications, 2024)
